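Method: 48-hour compound exposure of cells in 96-well plates, five concentrations, linear interpolation of endpoints. Definition used: TGI = concentration required for complete inhibition of growth.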
How the values were obtained:
Assay in all cases: NCI-60 cell line screen, 48 h
[1] = tested on: DU-145 prostate
[2] = tested on: CAKI-1 renal
[3] = tested on: COLO 205 colon
[4] = tested on: SF-268 CNS
[5] = tested on: SNB-75 CNS
[6] = tested on: SNB-78 CNS
[7] = tested on: HCT-116 colon
[8] = tested on: SK-OV-3 ovarian
[9] = tested on: CCRF-CEM leukemia
[10] = tested on: HOP-62 NSCLC
[11] = tested on: NCI-H460 lung
[12] = tested on: U251 CNS
[13] = tested on: HCT-15 colon
[14] = tested on: M19-MEL melanoma
[15] = tested on: IGROV1 ovarian
[16] = tested on: SW-620 colon
[17] = tested on: M14 melanoma
[18] = tested on: LOX IMVI melanoma
[19] = tested on: SK-MEL-5 melanoma
[20] = tested on: TK-10 renal
[21] = tested on: HCC-2998 colon
[22] = tested on: NCI-H522 lung
[23] = tested on: OVCAR-5 ovarian
[24] = tested on: A498 renal
[25] = tested on: A549 NSCLC
[26] = tested on: MALME-3M melanoma
[27] = tested on: ACHN renal
[28] = tested on: UACC-257 melanoma
[29] = tested on: HL-60(TB) leukemia
[30] = tested on: SN12C renal
[31] = tested on: XF 498 CNS
[32] = tested on: SR leukemia
[33] = tested on: MOLT-4 leukemia
[34] = tested on: NCI-H23 lung
[35] = tested on: OVCAR-8 ovarian
[36] = tested on: LXFL 529 NSCLC
[37] = tested on: UO-31 renal
[38] = tested on: HT29 colon
[39] = tested on: SF-295 CNS
[40] = tested on: RXF 393 renal
[41] = tested on: DLD-1 colon
[42] = tested on: SK-MEL-28 melanoma
[43] = tested on: UACC-62 melanoma
[44] = tested on: OVCAR-4 ovarian
[45] = tested on: OVCAR-3 ovarian
[46] = tested on: SF-539 CNS
[47] = tested on: DMS 114 small cell lung
[48] = tested on: SNB-19 CNS
[49] = tested on: 786-0 renal
[50] = tested on: RPMI-8226 leukemia
[51] = tested on: KM12 colon
[52] = tested on: HOP-92 NSCLC
[53] = tested on: KM20L2 colon
[54] = tested on: HOP-18 NSCLC
[55] = tested on: SK-MEL-2 melanoma
[56] = tested on: NCI-H226 lung
[57] = tested on: K-562 leukemia
[58] = tested on: EKVX NSCLC
[59] = tested on: DMS 273 small cell lung

Measured: TGI

CCOP(=O)(OCC)/C(C#N)=C\c1ccc(OC(C)=O)cc1
not listed: [59]
> 100 µM: all other assays above

[N-]=[N+]=NC1C2CC3C4CC5CC3[C@H](C2)C(C5)C41 (some centres not stated)
not listed: [1] | [6] | [13] | [29] | [53]
> 100 µM: all other assays above

Reference: PubChem BioAssay (NCI)
